# Measured values as given in paper PMC6934184, “Selective DNA-PKcs inhibition extends the therapeutic index of localized radiotherapy and chemotherapy” (The Journal of Clinical Investigation, 2019).
# Target: T1, CDK8/cyclin C (Homo sapiens, UniProt P49336)
# T1 construct: purchased Thermo Fisher Scientific (Life Technologies) SelectScreen
# Assay: SelectScreen LanthaScreen
# Assay type: binding
# Conditions: 1 µM
# Procedure: The in vitro kinase selectivity of NU5455 was determined using the SelectScreen Broad Assay Panel (Thermo Fisher Scientific) involving activity and binding assays (Supplemental Table 1). […] Class IA PI3Ks were measured using the p85α subunit.
# Kinase [ATP] % Assay Kinase [ATP] % Assay Kinase [ATP] % Assay Kinase [ATP] % Assay
# DNA-PK Km app 98.3 Z LATS2 n/a 4.7 L KIT D820E n/a 1.3 L GSK3B (GSK3 beta) Km app -2.5 Z
# PIK3C3 (hVPS34) Km app 85.9 A PRKCZ (PKC zeta) Km app 4.7 Z GRK1 n/a 1.3 L BMPR2 n/a -2.5 L
# PIK3C2B (PI3K-C2 beta) 10 28.9 A FGFR1 Km app 4.7 Z BRSK2 n/a 1.2 L CDC42 BPB (MRCKB) Km app -2.5 Z
# SNF1LK2 Km app 26.6 Z MINK1 Km app 4.6 Z NUAK1 (ARK5) Km app 1.2 A AMPK (A2/B2/G2) n/a -2.6 L
# HCK Km app 18.0 Z CSF1R (FMS) Km app 4.3 Z CDK9/cyclin K n/a 1.0 L PRKG1 Km app -2.7 Z
# NEK2 Km app 17.8 Z CSNK1G3 (CK1 gamma 3) Km app 4.2 Z NUAK2 n/a 1.0 L KIT T670E n/a -2.8 L
# ALK Km app 17.3 Z STK32C (YANK3) n/a 4.2 L CDK2/cyclin O n/a 0.9 L ERBB4 (HER4) Km app -2.8 Z
# FGFR3 K650M n/a 16.5 L STK22D (TSSK1) Km app 4.2 Z CAMKK2 (CaMKK beta) n/a 0.9 L PLK4 n/a -2.8 L
# SIK3 n/a 16.1 L TAOK3 (JIK) n/a 4.2 L FGFR3 Km app 0.9 Z GRK7 Km app -3.0 Z
# LYN A Km app 15.2 Z RPS6KA4 (MSK2) Km app 4.2 Z ULK2 n/a 0.9 L MAPKAPK2 Km app -3.1 Z
# BMPR1B (ALK6) n/a 14.5 L PTK2B (FAK2) Km app 4.2 Z KIT D816V n/a 0.9 L FGFR4 Km app -3.1 Z
# INSRR (IRR) Km app 14.1 Z CLK2 Km app 4.1 Z CAMK1 (CaMK1) 10 0.8 A CASK n/a -3.1 L
# PLK2 Km app 14.1 Z STK24 (MST3) Km app 4.1 Z PTK6 (Brk) Km app 0.7 Z GRK5 Km app -3.2 Z
# PRKACA (PKA) Km app 14.0 Z CAMK1D (CaMKI delta) Km app 4.1 Z CAMK2B (CaMKII beta) Km app 0.7 Z EGFR (ErbB1) T790M Km app -3.3 Z
# EIF2AK2 (PKR) n/a 13.3 L INSR Km app 4.1 Z ACVR1 (ALK2) n/a 0.7 L PAK4 Km app -3.3 Z
# PRKX Km app 12.5 Z IRAK1 Km app 4.0 A ABL1 H396P n/a 0.6 L DAPK3 (ZIPK) Km app -3.4 Z
# FGR Km app 12.1 Z SRC N1 Km app 3.9 Z MERTK (cMER) A708S n/a 0.6 L RET M918T n/a -3.5 L
# CLK1 Km app 11.7 Z SRPK2 Km app 3.9 Z MAPKAPK5 (PRAK) Km app 0.6 Z PRKCQ (PKC theta) Km app -3.7 Z
# MARK3 Km app 11.4 Z RPS6KA6 (RSK4) Km app 3.8 Z AKT1 (PKB alpha) Km app 0.5 Z CAMKK1 (CAMKKA) n/a -3.8 L
# PDGFRB (PDGFR beta) Km app 11.0 Z GRK6 Km app 3.7 Z NTRK3 (TRKC) Km app 0.4 Z FLT3 D835Y Km app -3.9 Z
# PRKCN (PKD3) Km app 10.7 Z PKN1 (PRK1) Km app 3.6 Z ZAP70 Km app 0.3 Z ROCK2 Km app -4.1 Z
# STK16 (PKL12) n/a 10.5 L MAP3K8 (COT) 100 3.5 Z CSNK1A1 (CK1 alpha 1) Km app 0.3 Z CHUK (IKK alpha) Km app -4.2 A
# FES (FPS) Km app 10.4 Z FLT4 (VEGFR3) Km app 3.5 Z MYLK (MLCK) n/a 0.2 L AXL Km app -4.2 Z
# ABL1 Km app 10.4 Z GRK4 Km app 3.5 Z MKNK2 (MNK2) n/a 0.2 L PIM2 Km app -4.3 Z
# MUSK Km app 10.3 Z FRK (PTK5) Km app 3.4 Z AMPK (A1/B1/G3) n/a 0.2 L PAK1 Km app -4.4 Z
# MAPK1 (ERK2) Km app 10.1 Z FYN A n/a 3.3 L MAP3K2 (MEKK2) n/a 0.1 L BMPR1A (ALK3) n/a -4.4 L
# BRAF 100 9.9 Z CDK1/cyclin A2 n/a 3.3 L CDK8/cyclin C n/a 0.1 L STK4 (MST1) Km app -4.4 Z
# IGF1R Km app 9.7 Z KIT V559D T670I n/a 3.1 L MARK2 Km app 0.1 Z PRKCH (PKC eta) Km app -4.6 Z
# MAPK14 (p38 alpha) Km app 9.7 Z SPHK2 10 3.1 A ICK n/a 0.0 L SGKL (SGK3) Km app -4.6 Z
# LCK Km app 9.6 Z FGFR3 G697C n/a 3.1 L FGFR2 Km app 0.0 Z PI4KB (PI4K beta) Km app -4.7 A
# MAPK11 (p38 beta) Km app 9.5 Z RIPK2 n/a 3.1 L AKT2 (PKB beta) Km app 0.0 Z PRKCE (PKC epsilon) Km app -4.9 Z
# SRC Km app 9.5 Z PAK6 Km app 3.0 Z EPHB2 Km app -0.1 Z PHKG1 Km app -5.0 Z
# CHEK1 (CHK1) Km app 9.3 Z LYN B Km app 3.0 Z TGFBR2 n/a -0.1 L PDGFRA D842V Km app -5.0 Z
# CAMK2D (CaMKII delta) Km app 9.3 Z DAPK2 n/a 2.9 L TEK (Tie2) Km app -0.1 Z PRKG2 (PKG2) Km app -5.1 Z
# PLK1 Km app 9.2 Z EPHA4 Km app 2.9 Z AURKA (Aurora A) Km app -0.1 Z TYRO3 (RSE) Km app -5.1 Z
# RET Y791F Km app 9.2 Z PIK3CG (p110 gamma) Km app 2.9 A KIT D816H n/a -0.2 L TAOK2 (TAO1) Km app -5.1 Z
# FLT3 Km app 9.1 Z HIPK1 (Myak) Km app 2.8 Z KIT N822K n/a -0.2 L EPHB4 Km app -5.3 Z
# MAPK10 (JNK3) 100 9.0 Z ADRBK2 (GRK3) Km app 2.8 Z PRKACG (PRKAC gamma) n/a -0.2 L AURKC (Aurora C) Km app -5.4 Z
# CSNK2A2 (CK2 alpha 2) Km app 8.7 Z STK17B (DRAK2) n/a 2.7 L TEK (TIE2) Y1108F n/a -0.3 L JAK1 Km app -5.7 Z […]
# T1 sequence (P49336 whole entry): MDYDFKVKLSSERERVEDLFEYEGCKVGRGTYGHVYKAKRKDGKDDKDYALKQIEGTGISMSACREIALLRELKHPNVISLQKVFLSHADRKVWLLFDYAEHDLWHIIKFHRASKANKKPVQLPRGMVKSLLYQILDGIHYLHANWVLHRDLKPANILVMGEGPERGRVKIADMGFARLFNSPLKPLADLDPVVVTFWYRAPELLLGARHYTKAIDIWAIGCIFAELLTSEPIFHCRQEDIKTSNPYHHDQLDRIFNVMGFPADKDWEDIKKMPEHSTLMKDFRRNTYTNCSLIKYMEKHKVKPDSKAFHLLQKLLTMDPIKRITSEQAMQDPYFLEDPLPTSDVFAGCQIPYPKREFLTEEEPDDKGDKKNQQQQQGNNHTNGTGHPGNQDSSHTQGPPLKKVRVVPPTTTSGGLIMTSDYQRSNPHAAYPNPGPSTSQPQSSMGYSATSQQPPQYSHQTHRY
# T1 sequence (P24863 whole entry partner): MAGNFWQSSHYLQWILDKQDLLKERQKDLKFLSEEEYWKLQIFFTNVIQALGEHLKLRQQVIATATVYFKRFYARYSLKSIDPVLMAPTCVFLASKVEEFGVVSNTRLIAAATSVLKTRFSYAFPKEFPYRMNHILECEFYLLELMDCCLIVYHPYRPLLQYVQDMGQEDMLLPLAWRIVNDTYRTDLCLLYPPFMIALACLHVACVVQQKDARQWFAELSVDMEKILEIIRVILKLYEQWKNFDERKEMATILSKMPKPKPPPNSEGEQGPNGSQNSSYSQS
compound,measurement,value
CN(C(=O)CN1CCOCC1)c1ccc2sc3c(-c4cccc5c(=O)cc(N6CC7CCC(C6)O7)oc45)cccc3c2c1 [NU5455],% displacement,0.1%
